According to patent US12492178B2, “Stable polymorph of R-MDMA HCl” (EMPATHBIO, INC., priority 2021, dated 2025):
Read-outs that look alike come from different tables or passages of the source.

Key:
[1] = background statement; cited from earlier work
[2] = Approximate solubility in various solvents at ambient temperature (aliquot addition, visual observation); assay type: physicochemical; conditions: for solubility: ambient temperature
Protocol: Aliquots of various solvents were added to measured amounts of a Form I with agitation (typically sonication) at ambient temperature until complete dissolution was achieved, as judged by visual observation. If dissolution occurred after the addition of the first aliquot, values are reported as “>”.

[3] = pH of aqueous solution using pH test strips; assay type: physicochemical; conditions: 10 mg/mL aqueous solution
[4] = Dynamic Vapor Sorption (DVS); assay type: physicochemical; conditions: for Post-DVS crystalline form: XRPD of post-DVS solids
Protocol: Dynamic vapor sorption data were collected on a Surface Measurement System DVS Intrinsic instrument.
Samples were not dried prior to analysis. Sorption and desorption data were collected over a range from 5% to 95% RH at 10% RH increments under a nitrogen purge. The equilibrium criterion used for analysis was less than 0.0100% weight change in 5 minutes with a maximum equilibration time of 3 hours. Data were not corrected for the initial moisture content of the samples.

[5] = Particle size distribution (PSD); assay type: physicochemical
[6] = Dry milling, effect on crystallinity (XRPD); assay type: physicochemical; conditions: 30 Hz for 3×10 minutes
Protocol: A dry milling experiment was conducted to investigate the effect on crystallinity.

[7] = Stable form screen from slurries in organic solvent (state by XRPD); assay type: physicochemical
[8] = Stable form screen from slurries in aqueous/organic mixtures at room temperature for 7 days (state by XRPD); assay type: physicochemical; conditions: RT
[9] = Heating by DSC from RT to 200° C. and cooling to RT, XRPD of treated sample; assay type: physicochemical; conditions: cooled down to RT
Protocol: An (R)-MDMA HCl Form 1 sample was heated by DSC from RT to 200° C. and cooled down to RT.

[10] = Stable form and polymorph screen, twenty-nine experiments (XRPD); assay type: physicochemical; conditions: all samples of Example 3, XRPD
[11] = Relative humidity stressing (state by XRPD); conditions: for Observations after RH stressing / State after RH stressing: 6 d

**Q.** For `CNC(C)Cc1ccc2c(c1)OCO2` (stereo not drawn) [MDMA, 3,4-Methylenedioxymethamphetamine], which “Solubility in water (in words)” value [1] is on record?
**A.** insoluble in water

**Q.** Which “Solubility in water (in words)” value [1] does the source give for `CNC(C)Cc1ccc2c(c1)OCO2.Cl` (racemic) [hydrochloride salt of racemic MDMA] here?
**A.** soluble in water

**Q.** What does the source list for `CN[C@H](C)Cc1ccc2c(c1)OCO2.Cl` [R-MDMA HCl Form I, (R)-3,4-methylenedioxymethamphetamine HCl]?
**A.** Approximate solubility at RT (in words) ([2]; ACN, DCM, and most alcohols, listed as R-MDMA HCl Form 1, HCl): good solubility in ACN, DCM, and most alcohols; solubility ([2]; Water, listed as R-MDMA HCl Form 1, HCl): >110000 µg/mL; Approximate solubility at RT (in words) ([2]; aqueous environments, HCl): The compound exhibited high solubility in aqueous environments,; Approximate solubility at RT (in words) ([2]; aqueous environments, listed as R-MDMA HCl Form 1, HCl): high solubility in aqueous environments; Approximate solubility at RT (in words) ([2]; most organic solvents tested, HCl): Lower solubility was observed in most organic solvents tested.; Approximate solubility at RT (in words) ([2]; most organic solvents tested, listed as R-MDMA HCl Form 1, HCl): Lower solubility was observed in most organic solvents tested; solubility ([2]; organic solvent or mixture, thermodynamic from solid, 1-BuOH, read-out: Solubility): 3000 µg/mL; solubility ([2]; organic solvent or mixture, thermodynamic from solid, 90:10 Acetone/Water, read-out: Solubility): > 76000 µg/mL; solubility ([2]; organic solvent or mixture, thermodynamic from solid, Acetone, read-out: Solubility): < 1000 µg/mL; solubility ([2]; organic solvent or mixture, thermodynamic from solid, CAN, read-out: Solubility): 7000 µg/mL; solubility ([2]; organic solvent or mixture, thermodynamic from solid, DCM, read-out: Solubility): 16000 µg/mL; solubility ([2]; organic solvent or mixture, thermodynamic from solid, EtOAc, read-out: Solubility): < 1000 µg/mL; solubility ([2]; organic solvent or mixture, thermodynamic from solid, EtOH, read-out: Solubility): 25000 µg/mL; solubility ([2]; organic solvent or mixture, thermodynamic from solid, Heptane, read-out: Solubility): < 1000 µg/mL; solubility ([2]; organic solvent or mixture, thermodynamic from solid, IPA, read-out: Solubility): 6000 µg/mL; solubility ([2]; organic solvent or mixture, thermodynamic from solid, MTBE, read-out: Solubility): < 1000 µg/mL; solubility ([2]; organic solvent or mixture, thermodynamic from solid, MeOH, read-out: Solubility): > 114000 µg/mL; solubility ([2]; organic solvent or mixture, thermodynamic from solid, MeOH/MTBE (5:95), read-out: Solubility): < 1000 µg/mL; solubility ([2]; organic solvent or mixture, thermodynamic from solid, MeOH/MTBE (10:90), read-out: Solubility): < 2000 µg/mL; solubility ([2]; organic solvent or mixture, thermodynamic from solid, MeOH/MTBE (20:80), read-out: Solubility): 3000 µg/mL; solubility ([2]; organic solvent or mixture, thermodynamic from solid, THF, read-out: Solubility): < 1000 µg/mL; solubility ([2]; organic solvent or mixture, thermodynamic from solid, p-dioxane, read-out: Solubility): < 1000 µg/mL; solubility ([2]; organic solvent or mixture, thermodynamic from solid, t-BuOH, read-out: Solubility): 1000 µg/mL; solubility ([2]; thermodynamic from solid, Water, read-out: Solubility): > 110000 µg/mL; pH of aqueous solution [3]: pH of a 10 mg/mL aqueous solution is approximately 6 using pH test; Water sorbed, equivalent moles ([4]; 5-85% RH): 0.04 moles water; DVS wt. gain ([4]; 5-85% RH, sorption, HCl): 0.28% wt. gain 5-85% RH; DVS wt. gain ([4]; 5-85% RH, sorption, listed as (R)-MDMA HCl Form I, HCl): 0.28%; DVS weight gain ([4]; 5-95% RH, sorption, listed as (R)-3,4-methylenedioxymethamphetamine HCl Form I, HCl): 5.28±0.02%; DVS wt. loss ([4]; 85-5% RH, desorption): 0.51% wt. loss 85-5% RH; Water sorbed, equivalent moles ([4]; 85-95% RH, per mole of salt): 0.7 mol water; DVS wt. gain ([4]; 85-95% RH, sorption): 5.00%; DVS weight loss ([4]; 95-5% RH, desorption, listed as (R)-3,4-methylenedioxymethamphetamine HCl Form I, HCl): 5.35±0.02%; DVS wt. loss ([4]; 95-85% RH, desorption): 4.84% wt. loss 95-85% RH; Post-DVS crystalline form ([4]; HCl): Post-DVS crystalline form was found to be Form I; Post-DVS crystalline form ([4]; listed as (R)-MDMA HCl Form I, HCl): consistent with Form I; Hygroscopicity (in words) ([4]; between 5% and 85% RH): low hygroscopicity; Hygroscopicity (in words) ([4]; between 85% and 95% RH): Significant hygroscopicity; Hysteresis on desorption ([4]; desorption 95-5% RH): virtually no hysteresis; PSD d10 [5]: 5.10 μm; PSD d50 [5]: 19.2 μm; PSD d90 [5]: 48.8 μm; State after dry milling [6]: Form I with no apparent decrease in crystallinity; State after slurry ([7]; 1-BuOH, RT, 14 d): Form I; State after slurry ([7]; 90:10 EtOAc/MeOH, RT, 14 d): Form I; State after slurry ([7]; ACN, RT, 14 d): Form I; State after slurry ([7]; DCM, RT, 14 d): Form I; State after slurry ([7]; EtOH, RT, 14 d): Form I; State after slurry ([7]; IPA, RT, 14 d): Form I; State after slurry ([7]; IPA, ~5° C., 14 d): Form I; State after slurry ([7]; MeOH/MTBE (10:90), RT, 5 d): Form I; State after slurry ([7]; t-BuOH, ~75° C., 7 d): Form I; State after slurry ([8]; THF/water 98:2 (aw 0.38)): Form I; State after slurry ([8]; acetone/water 98:2 (aw 0.35)): Form I; State after slurry ([8]; p-dioxane/water 95:5 (aw 0.40)): Form I; Crystalline state after heating [9]: Form I crystalline state; Form found in stable form and polymorph screen [10]: Form I was formed in each case; Observations after RH stressing ([11]; 75% RH): free-flowing solids, B/E; State after RH stressing ([11]; 75% RH): Form I; Observations after RH stressing ([11]; 90% RH): mostly free-flowing solids, some clumps,; State after RH stressing ([11]; 90% RH): Form I; Physical stability upon stressing ([11]; 97% RH for 6 days): exhibits physical stability; Observations after RH stressing ([11]; 97% RH): off-white fines, B/E, some deliquesence; State after RH stressing ([11]; 97% RH): Form I, PO
